Tests used:
[1] = Detergency against keratotic plugs after washing with water; design: species or system human; conditions: keratotic plugs kept in contact with water for 1 minute after the sample
Excerpt: (§1) The penetration was relatively evaluated by 11 criteria from the state 1 “the sample hardly penetrated into the keratotic plug” to the state 11 “the sample penetrated to the center of the keratotic plug”. The collapsibility by the detergency against keratotic plugs was relatively evaluated by 11 criteria from the state 1 “almost no change is observed in the external appearance of the keratotic plug” to the state 11 “peeling or separation is observed in the area from the surface layer to the central portion of the keratotic plug (the initial appearance of the keratotic plug is not retained)”.
2. Evaluation of Detergency Against Keratotic Plugs after Washing with Water
After one minute from the contact of the keratotic plugs with the sample, KimWipes (registered trademark) was brought into contact with an edge of the cover glass to remove the sample under the cover glass. Subsequently, 0.05 mL of water was dropwise added to an edge of the cover glass. The sample dropwise added with water was recorded with the digital microscope, and the collapse state of the keratotic plugs was evaluated after one minute from the contact of the keratotic plugs with water according to the criteria for evaluating collapsibility of the keratotic plugs. The results of the evaluation are shown in the column “Detergency against keratotic plugs (after washing with water)” in Table. The measurements were performed at 25° C.

[2] = Detergency against keratotic plugs during cleansing: collapse state of the keratotic plugs; design: species or system human; conditions: keratotic plugs kept in contact with a sample for 1 minute; Table 1 samples
Method: (§2) 1. Evaluation of Detergency Against Keratotic Plugs During Cleansing
(§3) Keratotic plugs in the nasal region were removed with “Biore Nose Pack (manufactured by Kao Corporation)”, the resulting keratotic plugs on the pack were gently taken out with tweezers.
(§4) The resulting keratotic plugs were placed on a slide glass and were covered with a cover glass, and 0.05 mL of a sample was dropwise added to an edge of the cover glass. Consequently, the sample enters into the gap between the slide glass and the cover glass by capillary phenomenon and is brought into contact with the keratotic plugs. The contact of the keratotic plugs with the sample was recorded with a digital microscope (VHX-5000, manufactured by Keyence Corporation, magnification: x150), and the penetration of the sample into the keratotic plugs and the collapse state of the keratotic plugs were evaluated after one minute from the contact of the keratotic plugs with the sample. The results of each evaluation are shown in the columns “Detergency against keratotic plugs (penetration)” and “Detergency against keratotic plugs (during cleansing)” in Tables. The measurements were performed at 25° C.
as §1

[3] = Detergency against keratotic plugs: penetration of the sample into the keratotic plugs; design: species or system human; conditions: keratotic plugs kept in contact with a sample for 1 minute; Table 1 samples
Method: as §2, §3, §4, §1

[4] = system: insoluble protein (zein protein); test: Evaluation of effect of suppressing protein aggregation; conditions: Table 1 sample
Method: <<Evaluation of Effect of Suppressing Protein Aggregation>>
Thirty milliliters of a sample and 0.06 g of an insoluble protein (zein protein) were placed in a 35-mL standard glass bottle, and the concentration of the insoluble protein was adjusted to 0.2 mass % (test sample). Separately, a standard sample was prepared by using water instead of the sample and adjusting the concentration of the insoluble protein to 0.2 mass %. Subsequently, the standard glass bottles were sufficiently shaken and stirred up and down (shake width: 15 cm, 20 times at a rate of 5 times for 3 seconds) in a thermostatic chamber of 25° C. and were left to stand per 3 minutes. The precipitation state of the insoluble protein was then visually verified, and the ratio of the amount of the precipitated standard sample to the amount of the precipitated test sample (the height of the precipitate in each standard glass bottle was measured as the precipitation amount), (precipitation amount of standard sample)/(precipitation amount of test sample), was calculated. A higher ratio indicates a higher effect of suppressing protein aggregation.

| Compound | collapse of the keratotic plugs on contact with water (in words) [1] | collapse of the keratotic plugs in contact with the sample (in words) [2] | penetration into keratotic plugs (in words) [3] | action on proteins (in words) [4] |
| --- | --- | --- | --- | --- |
| O=C([O-])O.[Na+] [sodium hydrogen carbonate] | the collapse of the keratotic plugs did not progress | the collapse of the keratotic plugs did not progress | hardly penetrated into keratotic plugs |  |
| O=P([O-])([O-])O.[Na+].[Na+] [disodium hydrogen phosphate] | the collapse of the keratotic plugs did not progress | the collapse of the keratotic plugs did not progress | hardly penetrated into keratotic plugs |  |
| O=P([O-])([O-])[O-].[Na+].[Na+].[Na+] [trisodium phosphate] | the collapse of the keratotic plugs did not progress | the collapse of the keratotic plugs did not progress | hardly penetrated into keratotic plugs |  |
| N=C(N)NCCC[C@H](N)C(=O)O [Arginine] | further swelled to cause a phenomenon of accelerating the collapse of the keratotic plugs |  | penetrated into keratotic plugs |  |
| sodium polyoxyethylene (2) lauryl ether sulfate [POE (2) sodium lauryl sulfate] |  | the collapse of the keratotic plugs did not progress | hardly penetrated into the keratotic plugs | the action on proteins was strong to dissolve the proteins |

— patent publication US20200054539A1, “METHOD FOR REMOVING KERATOTIC PLUGS” (KAO CORPORATION, priority 2017, published 2020)
